Results on 4 compounds are retold here after article PMC4516653 (European journal of pharmaceutical sciences : official …, 2015).

Where “and” joins values, the source holds several entries; their conditions need not be identical. Identical values can stand only once. Like-named read-outs stand apart in the source and are kept apart here.

In one data set the target is T1, CYP 2C8 (Homo sapiens, UniProt P10632).
T1 sequence (P10632 1-490): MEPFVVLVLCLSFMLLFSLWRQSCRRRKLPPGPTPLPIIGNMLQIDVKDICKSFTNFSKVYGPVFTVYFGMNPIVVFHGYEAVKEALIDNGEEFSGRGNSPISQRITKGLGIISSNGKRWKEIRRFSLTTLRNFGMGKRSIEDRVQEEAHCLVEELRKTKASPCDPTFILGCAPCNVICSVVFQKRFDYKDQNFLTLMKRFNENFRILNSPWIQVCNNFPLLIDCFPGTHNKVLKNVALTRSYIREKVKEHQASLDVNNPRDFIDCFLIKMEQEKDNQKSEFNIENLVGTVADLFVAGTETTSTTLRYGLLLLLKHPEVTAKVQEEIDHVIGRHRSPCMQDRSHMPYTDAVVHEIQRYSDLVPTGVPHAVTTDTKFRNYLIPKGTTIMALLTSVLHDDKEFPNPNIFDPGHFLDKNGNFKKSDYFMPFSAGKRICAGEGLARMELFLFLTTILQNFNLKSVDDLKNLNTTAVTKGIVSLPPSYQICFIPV
Kind of data set: CYP inhibition assay in human liver microsomes. In kind it is in vitro ADME. In general terms: Microsomes from liver hold many membrane-bound enzymes, among them those of drug oxidation.

The next data set addresses CYP 2D6 (Homo sapiens, UniProt P10635). Put plainly: CYP inhibition assay in human liver microsomes. In kind it is in vitro ADME.
The target in a further data set is T2, CYP 2B6 (Homo sapiens, UniProt P20813).
T2 sequence (P20813 1-491): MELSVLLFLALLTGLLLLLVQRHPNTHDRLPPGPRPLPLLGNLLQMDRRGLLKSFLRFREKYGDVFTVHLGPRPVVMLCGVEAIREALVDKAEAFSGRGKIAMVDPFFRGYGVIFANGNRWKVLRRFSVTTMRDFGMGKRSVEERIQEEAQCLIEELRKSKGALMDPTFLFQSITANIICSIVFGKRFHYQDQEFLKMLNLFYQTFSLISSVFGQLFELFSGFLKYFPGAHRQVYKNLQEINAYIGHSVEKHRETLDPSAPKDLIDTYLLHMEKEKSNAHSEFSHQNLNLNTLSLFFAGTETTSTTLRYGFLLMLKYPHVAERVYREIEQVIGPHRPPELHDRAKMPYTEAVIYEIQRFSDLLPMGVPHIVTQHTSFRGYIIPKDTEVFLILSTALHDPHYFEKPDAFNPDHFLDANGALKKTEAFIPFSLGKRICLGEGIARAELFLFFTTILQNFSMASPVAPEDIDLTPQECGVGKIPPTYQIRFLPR
Kind of data set: CYP inhibition assay in human liver microsomes. As to conditions: IC50 CYP 2B6, human liver microsomes; duplicate incubations, both values printed. In kind it is in vitro ADME.

The next data set deals with CYP3A4 (Homo sapiens, UniProt P08684). Kind of data set: CYP inhibition assay in human liver microsomes. In kind it is in vitro ADME. As to conditions: mean value given in text, HLM.
The next data set has as its target T3, CYP 2A6 (Homo sapiens, UniProt P11509).
T3 sequence (P11509 1-494): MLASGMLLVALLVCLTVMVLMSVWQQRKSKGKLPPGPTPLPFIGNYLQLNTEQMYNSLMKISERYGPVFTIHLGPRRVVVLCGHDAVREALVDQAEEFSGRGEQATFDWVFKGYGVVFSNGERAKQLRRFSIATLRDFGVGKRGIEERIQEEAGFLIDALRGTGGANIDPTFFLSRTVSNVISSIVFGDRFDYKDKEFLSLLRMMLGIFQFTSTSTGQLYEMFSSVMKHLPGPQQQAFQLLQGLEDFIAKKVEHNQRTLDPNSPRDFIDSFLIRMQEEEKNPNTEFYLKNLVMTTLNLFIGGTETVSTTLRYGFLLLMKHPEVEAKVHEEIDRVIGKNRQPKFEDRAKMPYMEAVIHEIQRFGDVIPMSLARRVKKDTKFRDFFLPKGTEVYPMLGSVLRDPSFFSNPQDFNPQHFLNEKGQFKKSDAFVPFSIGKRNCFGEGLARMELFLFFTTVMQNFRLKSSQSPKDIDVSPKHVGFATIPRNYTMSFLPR
Kind of data set: CYP inhibition assay in human liver microsomes. In kind it is in vitro ADME.

For another data set, the target named is T4, CYP 1A2 (Homo sapiens, UniProt P05177).
T4 sequence (P05177 1-516): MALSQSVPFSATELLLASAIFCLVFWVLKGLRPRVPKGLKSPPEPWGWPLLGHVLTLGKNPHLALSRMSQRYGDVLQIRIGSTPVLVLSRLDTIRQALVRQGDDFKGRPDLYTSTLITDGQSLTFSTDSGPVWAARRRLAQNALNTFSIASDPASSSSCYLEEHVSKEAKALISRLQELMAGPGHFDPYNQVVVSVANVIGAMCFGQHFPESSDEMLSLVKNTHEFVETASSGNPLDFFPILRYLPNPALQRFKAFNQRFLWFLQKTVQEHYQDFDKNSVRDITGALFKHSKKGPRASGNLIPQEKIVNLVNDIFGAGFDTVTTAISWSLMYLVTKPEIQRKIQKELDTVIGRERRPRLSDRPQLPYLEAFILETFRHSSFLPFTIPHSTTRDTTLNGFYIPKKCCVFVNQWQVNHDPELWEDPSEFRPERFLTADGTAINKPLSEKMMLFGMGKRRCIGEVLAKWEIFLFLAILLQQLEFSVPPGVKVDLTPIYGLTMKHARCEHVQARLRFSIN
Put plainly: CYP inhibition assay in human liver microsomes. In kind it is in vitro ADME.

Another data set concerns the target CYP 2E1 (Homo sapiens, UniProt P05181). Kind of data set: CYP inhibition assay in human liver microsomes. In kind it is in vitro ADME.
For a further data set, the target named is CYP 2C9 (Homo sapiens, UniProt P11712). Put plainly: CYP inhibition assay in human liver microsomes. In kind it is in vitro ADME.
A short description of data set [1]: Single-dose oral PK screening of Nos with dietary ingredients. In kind it is in vivo, male CD-1 mice.
The nature of a further data set: Repeated-dose. In kind it is in vivo, male CD-1 mice. As to conditions: for AUC(0-t): AUClast.
For data set [2] the following is noted: cited from earlier work.
Data set [3] is described as follows: Clinical chemistry parameters after 7 days oral dosing. In kind it is in vivo, mice. Particulars: hepatic and renal serum markers.
The nature of data set [4]: Microsomal stability assay of Nos. In kind it is in vitro ADME, CD-1 mouse. Particulars: Noscapine 10 μM alone; n=2.
The nature of data set [5]: Microsomal stability assay of Nos. In kind it is in vitro ADME, Sprague-Dawley rat. Particulars: Noscapine 10 μM alone; n=2.
Data set [6] is described as follows: Microsomal stability assay of Nos. In kind it is in vitro ADME, Beagle dog. As to conditions: Noscapine 10 μM alone; n=2.
Data set [7] in a line: Microsomal stability assay of Nos. In kind it is in vitro ADME, human. As to conditions: Noscapine 10 μM alone; n=2.
A further data set concerns UGT. Put plainly: In vitro UGT inhibition in mouse liver. Particulars: UGT inhibition experiments, MLM and MIM, Figure 7.
Where [8] appears, read: IC50 CYP 2C8, human liver microsomes, duplicate incubations, both values printed.
The mark [9] stands for this setting: IC50 CYP 1A2, human liver microsomes, duplicate incubations, both values printed.
Where [10] appears, read: IC50 CYP 2C9, human liver microsomes, duplicate incubations, both values printed.
Where [11] appears, read: male, CD-1, mouse, plasma, po, 50 mg/kg.

Chain of CYP 2C9 (P11712 whole entry): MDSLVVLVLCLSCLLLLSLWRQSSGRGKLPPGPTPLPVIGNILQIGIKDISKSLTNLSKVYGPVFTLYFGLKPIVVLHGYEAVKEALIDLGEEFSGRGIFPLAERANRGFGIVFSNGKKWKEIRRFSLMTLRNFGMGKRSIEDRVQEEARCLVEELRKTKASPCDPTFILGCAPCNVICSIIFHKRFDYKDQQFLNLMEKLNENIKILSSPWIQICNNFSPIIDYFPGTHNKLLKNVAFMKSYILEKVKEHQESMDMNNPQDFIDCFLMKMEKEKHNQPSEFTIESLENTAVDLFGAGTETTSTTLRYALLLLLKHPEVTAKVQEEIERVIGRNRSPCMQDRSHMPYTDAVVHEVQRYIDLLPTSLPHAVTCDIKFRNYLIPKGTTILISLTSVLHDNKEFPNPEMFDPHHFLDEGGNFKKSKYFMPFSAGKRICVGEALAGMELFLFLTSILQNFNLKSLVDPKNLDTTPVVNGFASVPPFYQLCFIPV
Chain of CYP 2D6 (P10635 whole entry): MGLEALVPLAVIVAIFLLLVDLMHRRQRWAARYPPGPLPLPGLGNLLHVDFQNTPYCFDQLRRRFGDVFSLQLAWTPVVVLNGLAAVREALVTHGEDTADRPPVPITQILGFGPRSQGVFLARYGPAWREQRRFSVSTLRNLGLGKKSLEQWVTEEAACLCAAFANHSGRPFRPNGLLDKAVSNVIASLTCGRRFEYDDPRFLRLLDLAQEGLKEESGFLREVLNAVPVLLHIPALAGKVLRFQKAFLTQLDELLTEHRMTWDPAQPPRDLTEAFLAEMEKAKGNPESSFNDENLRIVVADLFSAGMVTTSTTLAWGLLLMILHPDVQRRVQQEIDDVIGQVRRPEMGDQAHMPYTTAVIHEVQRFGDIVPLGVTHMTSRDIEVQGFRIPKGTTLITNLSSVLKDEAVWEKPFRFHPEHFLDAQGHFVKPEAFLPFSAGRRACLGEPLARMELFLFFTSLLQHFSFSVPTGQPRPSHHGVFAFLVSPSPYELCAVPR
Chain of CYP 2E1 (P05181 whole entry): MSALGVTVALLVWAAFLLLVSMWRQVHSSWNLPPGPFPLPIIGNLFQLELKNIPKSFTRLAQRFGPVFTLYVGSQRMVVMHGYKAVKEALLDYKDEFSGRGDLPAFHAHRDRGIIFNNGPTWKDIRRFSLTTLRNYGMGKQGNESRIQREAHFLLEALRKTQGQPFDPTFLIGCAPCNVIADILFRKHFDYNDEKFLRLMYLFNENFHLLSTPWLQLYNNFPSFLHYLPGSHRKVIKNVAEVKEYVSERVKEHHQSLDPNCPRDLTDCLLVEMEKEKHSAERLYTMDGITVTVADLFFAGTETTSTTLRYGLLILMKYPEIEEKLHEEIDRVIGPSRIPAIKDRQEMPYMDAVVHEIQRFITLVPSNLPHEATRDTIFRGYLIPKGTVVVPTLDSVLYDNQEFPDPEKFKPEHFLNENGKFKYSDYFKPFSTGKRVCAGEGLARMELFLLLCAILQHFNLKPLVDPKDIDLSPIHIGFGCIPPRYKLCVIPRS
Chain of CYP3A4 (P08684 2-503 limits assumed): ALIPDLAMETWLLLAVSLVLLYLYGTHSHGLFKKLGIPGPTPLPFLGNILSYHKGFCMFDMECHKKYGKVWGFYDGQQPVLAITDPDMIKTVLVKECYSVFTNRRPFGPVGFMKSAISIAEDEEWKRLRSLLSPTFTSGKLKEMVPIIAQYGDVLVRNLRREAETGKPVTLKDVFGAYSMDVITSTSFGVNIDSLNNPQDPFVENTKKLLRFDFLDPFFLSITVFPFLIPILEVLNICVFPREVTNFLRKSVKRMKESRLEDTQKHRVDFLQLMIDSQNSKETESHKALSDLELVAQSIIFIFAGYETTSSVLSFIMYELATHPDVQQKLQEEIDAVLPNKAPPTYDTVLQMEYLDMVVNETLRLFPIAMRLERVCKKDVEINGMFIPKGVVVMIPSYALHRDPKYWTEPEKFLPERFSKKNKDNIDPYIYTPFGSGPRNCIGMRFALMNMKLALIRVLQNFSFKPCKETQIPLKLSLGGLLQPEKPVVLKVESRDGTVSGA

In the case of `COc1cc(CNC(=O)CCCC/C=C/C(C)C)ccc1O` [Cap, capsaicin], the IC50 – broadly, the midpoint of a concentration-inhibition curve – is 6.3 µM and 5.9 µM against CYP 2C8 (setting [8]); 6.1 µM against CYP 2C8 (mean IC50 CYP2C8, mean value given in text, HLM); 68 µM on CYP 2D6; 26 µM and 24 µM against CYP 2B6; 16 µM at CYP3A4 (mean IC50 CYP3A4, midazolam as substrate); 9.7 µM at CYP3A4 (mean IC50 CYP3A4, testosterone as substrate). In addition, the IC50 against CYP 2A6 is greater than 100 µM; at CYP 1A2 (setting [9]) it was 3.1 µM and 3.5 µM; against CYP 1A2 (mean IC50 CYP1A2, mean value given in text, HLM), 3.3 µM; against CYP 2E1 it was greater than 100 µM; at CYP 2C9 it was 3.7 µM; on CYP 2C9 (setting [10]) it was 4.5 µM. At CYP 2C9 (mean IC50 CYP2C9, mean value given in text, HLM), this compound gave an IC50 of 4.1 µM.

Turning to `C=CCc1ccc(O)c(OC)c1` [Eu, eugenol], the “Tmax of Nos” value in data set [1] (Nos alone or co-dosed with the named dietary agent, single oral dose) is reported as “remained unaffected”.

With `COc1ccc2c(c1OC)C(=O)O[C@@H]2[C@H]1c2c(cc3c(c2OC)OCO3)CCN1C` [Nos, Noscapine], the AUClast in “Repeated-dose” (Day 1, noscapine, oral gavage Nos 50 mg/kg bw, Cap/Pip 5 mg/kg bw, CD-1 mice) turned out to be 1.02376 µg·h/mL; in the data set “Repeated-dose” (Day 7, noscapine, daily oral gavage Nos 50 mg/kg bw, Cap/Pip 5 mg/kg bw, CD-1 mice) it was 0.50774 µg·h/mL. Besides, the maximum concentration (Cmax) (as a rule, the peak of the concentration-time curve) in “Repeated-dose” (Day 1, noscapine, oral gavage Nos 50 mg/kg bw, Cap/Pip 5 mg/kg bw, CD-1 mice, mean ± SD) came out at 3.08737 ± 1.23227 µg/mL; in “Repeated-dose” (Day 7, noscapine, daily oral gavage Nos 50 mg/kg bw, Cap/Pip 5 mg/kg bw, CD-1 mice, mean ± SD) it was 0.68404 ± 0.03177 µg/mL. Besides, in “Repeated-dose” (setting [11]), the time to peak (Tmax) (in general, the time from dosing to the highest level) at 1 day is 10.2 min. Besides, the Tmax at 7 days in the data set “Repeated-dose” (setting [11]) was 15 min. In addition, the AUC(0-t) (as a rule, the area under the concentration-time curve up to a stated or last time point) in “Repeated-dose” (male, CD-1, mouse, plasma, po, 50 mg/kg, Day 1, noscapine, oral gavage Nos 50 mg/kg bw, Cap/Pip 5 mg/kg bw, CD-1 mice) came out at 1.02 µg·h/mL; in the data set “Repeated-dose” (male, CD-1, mouse, plasma, po, 50 mg/kg, Day 7, noscapine, daily oral gavage Nos 50 mg/kg bw, Cap/Pip 5 mg/kg bw, CD-1 mice), 0.508 µg·h/mL; in data set [1] (setting [11]), 1.92 µg·h/mL. Besides, the Cmax at 1 day in “Repeated-dose” (male, CD-1, mouse, plasma, po, 50 mg/kg, Cmax, Day 1, noscapine, oral gavage Nos 50 mg/kg bw, Cap/Pip 5 mg/kg bw, CD-1 mice, mean ± SD) turned out to be 3.09 µg/mL. In “Repeated-dose” (male, CD-1, mouse, plasma, po, 50 mg/kg, Cmax, Day 7, noscapine, daily oral gavage Nos 50 mg/kg bw, Cap/Pip 5 mg/kg bw, CD-1 mice, mean ± SD), this compound displayed a Cmax at 7 days of 0.684 µg/mL. The “decrease in exposure of Nos on day 7 compared to day 1” value in “Repeated-dose” (repeated oral dosing for seven days) is listed as “half”. Further, the IC50 was 10 µM and 8.4 µM against CYP 2C8 (setting [8]); greater than 100 µM at CYP 2D6; greater than 100 µM against CYP 2B6; greater than 100 µM against CYP 2A6; greater than 100 µM on CYP 1A2 (setting [9]); greater than 100 µM on CYP 2E1. Moreover, the IC50 against CYP 2C9 (setting [10]) is 18 µM and 24 µM. Further, the bioavailability entry in data set [2] (mice, ref Aneja et al., 2007) is listed as “around 32%”. Further, the Oral bioavailability in [2] (mouse, reported, no reference given) is reported as 30%. Further, the half-life (in general, the time needed for the level to fall by half in the phase considered) in data set [2] (ref Aneja et al., 2007) is less than 120 min; in data set [1] (setting [11]), less than 60 min. The “clinical chemistry parameters vs vehicle-treated mice” value in data set [3] is given as “did not affect”. In data set [4], the “Intrinsic Clearance MLM” value is 6.4 mL/min/g liver. Also, the “Intrinsic Clearance RLM” value in [5] is 4.0 mL/min/g liver. In addition, the Tmax in [1] (setting [11]) stood at 4.8 min. The “Intrinsic Clearance DLM” value in data set [6] was found to be 1.9 mL/min/g liver. Besides, the “Intrinsic Clearance HLM” value in data set [7] is recorded as 1.8 mL/min/g liver.

As for `O=C(/C=C/C=C/c1ccc2c(c1)OCO2)N1CCCCC1` [Pip, piperine], the IC50 was 84 µM and 78 µM against CYP 2C8 (setting [8]); greater than 100 µM on CYP 2D6; 87 µM and 90 µM against CYP 2B6; greater than 100 µM at CYP 2A6; 35 µM and 38 µM at CYP 1A2 (setting [9]); greater than 100 µM on CYP 2E1. Further, on CYP 2C9, inhibition was half-maximal at 54 µM (IC50). Moreover, the “inhibitory effect on the rate of metabolism of Nos” value in the data set on UGT is given as “did not reveal significant inhibitory effects”.
